Source: article PMC7822874, “Chemoprotective antimalarials identified through quantitative high-throughput screening of Plasmodium blood and liver stage parasites” (Scientific Reports, 2021)

System: Plasmodium falciparum Dd2 asexual blood stage parasites
Assay: microbe, parasite or virus in culture
Parameters: species or system Plasmodium falciparum Dd2 in human erythrocytes; single determination (one 11-point concentration-response curve)
Conditions: Plasmodium falciparum, DD2, Erythrocyte, 72 h; read-out: AC50

| SMILES | AC50 [µM] |
| --- | --- |
| Cc1cc(C)n(CC(O)COc2ccccc2)n1 (stereo not drawn) [MLS000525359-01] | 13.3 |
| Cc1c(Cl)cccc1Nc1nn2c(=O)c3ccc(C(=O)NCCc4ccccc4)cc3nc2s1 [NCGC00125565-01] | 7.5 |
| Oc1ccc(Cl)cc1CN1CCN(Cc2ccccc2)CC1 [MLS000530315-01] | 0.944 |
| Cc1ccc(CN2CC[C@@H]3C(=O)NCCCCCCN(Cc4ccncc4)[C@@H]3C2)o1 [NCGC00467213-01] | 2.11 |
| O=C1CC(c2ccccc2)N(Cc2ccncc2)CCCN([S+](=O)([O-])c2cccs2)CCN1 (stereo not drawn) [NCGC00467201-01] | 6.68 |
| COc1cccc(CC(=O)N2CCCC(CN3CCCC3)CC2)c1 (stereo not drawn) [NCGC00456752-01] | 15 |
| CCn1c(=O)c(=O)n(CC)c2cc(N3CCCCC3)c(NC(=O)c3ccc(Cl)cc3)cc21 [NCGC00107440-01] | 7.5 |
| CCOc1ccc(NC(=O)c2ccc(-c3nnc4ccc(NC(=O)C5CC5)cn34)cc2)cc1 [NCGC00429851-01] | 2.99 |
| COc1ccccc1CNC(=O)[C@@H](C)C1CC[C@@]2(C)CC[C@H](NC(=O)c3cncnc3)[C@@H](C)[C@@H]2[C@H]1O (stereo partly drawn) [NCGC00395379-01] | 2.37 |
| COc1ccccc1Nc1cnc2ccc(-c3ccc(F)cc3)nn12 [NCGC00412490-01] | 6.85 |
| CCOc1ccc(NC(=O)CCc2c(C)nc3cc(-c4ccc(Cl)cc4)nn3c2C)cc1 [NCGC00110024-01] | 6.68 |
| CCOc1ccc(CN2C(=O)c3ccccc3Sc3ccc(C(=O)N4CCN(C)CC4)cc32)cc1 [NCGC00108216-01] | 0.299 |
| O=C(c1nc(-c2cccc(C(F)(F)F)c2)c2cnccn12)N1CCCC1 [NCGC00476432-01] | 10.6 |
| Fc1cccc(CN2CCC(N3CC(OCC4CC4)C34CCCCC4)CC2)c1 (stereo not drawn) [NCGC00463410-01] | 4.22 |
| Cc1cccc(-n2c(/C=C/c3c(C)[nH]c4ccccc34)nc3ccccc3c2=O)c1 [NCGC00098794-01] | 3.76 |
| CCOc1ccc(-c2cc3nc(C4CCN(C(=O)OC(C)(C)C)CC4)c(C(=O)Nc4ccc(C(=O)OC)cc4)cn3n2)cc1 [NCGC00110849-01] | 4.73 |
| Clc1ccc(CN2CCOC[C@H](Oc3ccccc3)C2)cc1 [NCGC00393521-01] | 17.2 |
| CCOC(=O)c1ccccc1NC(=O)c1cn(CC(C)C)c(=O)c2cc(OC)c(OC)cc12 [NCGC00104537-01] | 8.41 |
| COc1ccc(N2CCN(C(=O)CSc3nc(-c4ccc(C(C)C)cc4)no3)CC2)cc1 [NCGC00127936-01] | 0.531 |
| COc1cncc(Nc2cnc3ccc(-c4ccc(OC)c(OC)c4)nn23)c1 [NCGC00412563-01] | 1.22 |
| Cc1cccn2c(=O)c3cc(C(=O)NC(C)c4ccccc4)c(=N)n(CCOCCO)c3nc12 (stereo not drawn) [NCGC00100488-01] | 10.6 |

| SMILES | AC50 [µM] |
| --- | --- |
| COc1ccc(C)cc1NC(=O)N1CCCC2(C1)Nc1cccnc1N=C2NC1CCCC1 (stereo not drawn) [NCGC00440441-01] | 6.68 |
| COc1cc(-c2nc(-c3c(C)noc3C)cc3c2cc(C)n3CCN(C)C)ccn1 [NCGC00417201-01] | 17.2 |
| Cc1ccc(C2Cn3nnc(-c4noc(-c5n[nH]c6c5CCCC6)n4)c3CO2)cc1 (stereo not drawn) [NCGC00454353-01] | 13.3 |
| O=C1N(c2ccccc2C(F)(F)F)O[C@@]1(c1ccccc1)C1CCCCC1 [MLS002206598-01] | 5.31 |
| COc1cccc(NC(=O)Cn2cccc2-c2nc(-c3ccc(OC)c(F)c3)no2)c1 [NCGC00445448-01] | 6.68 |
| Cc1cccc(N2CCN(C(=O)CCc3nnc4n(CC(C)C)c(=O)c5ccccc5n34)CC2)c1C [NCGC00112784-01] | 3.35 |
| C1CCC(CNc2c3c(nc4nnnn24)CCCC3)CC1 [MLS000034780-01] | 13.3 |
| CCNc1nc(NC(C)CC)nc(ON=C(C)C)n1 (stereo not drawn) [MLS000856336-01] | 8.41 |
| CCN(CC)C(=O)c1ccc(-c2nnc3ccc(NC(=O)C4CC4)cn23)cc1 [NCGC00429860-01] | 2.99 |
| Nc1nonc1-n1nnc(C(=O)N/N=C/c2ccc(F)cc2)c1-c1ccc2c(c1)OCO2 [MLS001142639-01] | 0.335 |
| CCOc1ccc(C(C)NC(S)=NC2CCCCC2)cc1OCC (stereo not drawn) [MLS001007596-01] | 0.211 |
| Cc1ccc(CN2CCOC[C@H]2c2nc(C(C)(C)C)c[nH]2)cc1 [NCGC00393602-01] | 13.7 |
| Cc1oc2c(CN3CCCCC3)c(O)ccc2c(=O)c1-c1ccc(Cl)cc1 [MLS001214839-01] | 5.31 |
| CCCN1CCN(CCCNC(=O)c2ccc3c(c2)sc2nc(-c4ccc(OC)cc4)cn23)CC1 [NCGC00121829-01] | 4.73 |
| Oc1ccccc1CN1CCOC[C@H]1c1nc(-c2ccc(C(F)(F)F)cc2)c[nH]1 [NCGC00394286-01] | 4.85 |
| Cc1cccc(CN2CCN(C(=O)CCl)CC2)c1 [MLS000336096-01] | 13.3 |
| CCN1CCN(Cc2cc(Br)cc(Br)c2O)CC1 [MLS000530316-01] | 7.5 |
| COc1ccccc1CN1CCC(CNC(=O)c2cnn(-c3ccc(Cl)cc3)c2C2CCN(C(=O)OC(C)(C)C)CC2)CC1 [NCGC00126796-01] | 2.66 |
| Cc1ccc(-n2ncc(C(=O)N3CCN(c4cc(Cl)ccc4C)CC3)c2C2CCN(C(=O)OC(C)(C)C)CC2)cc1 [NCGC00126953-01] | 8.41 |
| COc1ccc(-c2nnc(C[C@@H]3C[C@@H](C(C)C)[C@H](CNCc4cccnc4)C=C3C)o2)cc1 [NCGC00394182-01] | 6.68 |
| O=C(NCC1CCCN(Cc2cccc(-c3ccco3)c2)C1)c1cccs1 (stereo not drawn) [NCGC00427501-01] | 6.68 |

| SMILES | AC50 [µM] |
| --- | --- |
| COc1ccc(Nc2c(-c3cc(Br)ccc3O)nc3ncccn23)cc1OC [NCGC00107676-01] | 4.73 |
| Cc1cc(Nc2ccc(C(C)C)cc2)n2ncnc2n1 [MLS000116597-01] | 4.22 |
| Cc1nc2cc(F)ccc2n1C1CCN(C(=O)c2c(F)cccc2F)CC1 [MLS000710077-01] | 5.96 |
| COc1ccc(N2CCN(Cc3cc4c(cc3O)CCC4)CC2)cc1 [MLS000572034-01] | 16.8 |
| COc1cccc(CC(=O)N2CCCn3nc(C)c(-c4ccccc4OCc4ccccc4)c32)c1 [NCGC00420361-01] | 9.44 |
| O=C(CNC1CC1)Nc1cc(C(F)(F)F)ccc1Cl [MLS001010951-01] | 15 |
| CN(C)CCNCc1ccc(-c2ccccc2)o1 [NCGC00326685-02] | 10.6 |
| COc1cccc(Nc2ccc3c(n2)C(C)(C(=O)N2CCCC2)CN(C)C3)c1 (stereo not drawn) [NCGC00414569-01] | 17.2 |
| Oc1ccccc1C1=NN(c2ccccc2)C(c2ccccc2)C1 (stereo not drawn) [MLS001163829-01] | 7.5 |
| CC(=O)NCCC(=O)Nc1cc(S(=O)(=O)N2CCCCC2)ccc1N1CCCCC1 [MLS002181171-01] | 7.5 |
| CCCCCCSc1ccc([C@H]2N[C@@](Cc3ccccc3)(C(=O)OC)[C@H]3C(=O)N(CC)C(=O)[C@@H]23)cc1 [MLS001362744-01] | 3.35 |
| CC(C)Cn1c(-c2ccco2)nc2c(c(=O)c3ccccc3n2C)c1=O [MLS000331990-01] | 9.44 |
| COc1cccc(NC(=O)C2(C)CN(C)Cc3ccc(N4CCOCC4)nc32)c1 (stereo not drawn) [NCGC00414578-01] | 3.85 |
| COC1=CC(=O)C(=C(C)N/N=C(\S)NCCc2ccccc2)C=C1 [MLS001170945-01] | 3.35 |
| SC(=NCc1ccccc1)N1CCn2cccc2C1c1cccnc1 (stereo not drawn) [MLS000683224-01] | 9.44 |
| Cc1ccc(C(=O)N/N=C/c2ccc([N+](=O)[O-])s2)cc1 [MLS000519463-01] | 5.96 |
| COc1ccccc1NC(=O)N1CC(=O)Nc2sc3c(c2C1c1ccccc1)CCCC3 (stereo not drawn) [NCGC00120109-01] | 15 |
| CN(C)Cc1cc(C[C@@H]2C[C@H](NCc3ccccc3O)C2(C)C)no1 [NCGC00395458-01] | 17.2 |
| CN(C)c1ccc(CN2CCC3(CC2)COc2ccccc2C(=O)N3)cc1 [NCGC00477464-01] | 2.66 |
| CCc1c(C)c2ccc3c(c2oc1=O)CN(Cc1ccccc1)CO3 [NCGC00125086-01] | 2.11 |
| Cc1cccc(Nc2cc(C)c3c(O)cccc3n2)c1C [MLS000586980-01] | 4.73 |

| SMILES | AC50 [µM] |
| --- | --- |
| Cc1ccccc1Nc1nc(-c2cccnc2)cs1 [MLS001206645-01] | 9.44 |
| CCN(CCCNC(=O)c1nn(-c2ccc(OC)c(Cl)c2)c(=O)c2c1c1ccccc1n2C)c1cccc(C)c1 [NCGC00108898-01] | 15 |
| CN(C)CCNC(=O)c1cc(-c2ccccc2F)cc2c1OCCN2Cc1cccnc1 [NCGC00416987-01] | 6.85 |
| COc1cncc(CN2CCC3(CC2)OC(=O)N(Cc2ccc(O)cc2)C3(C)c2ccccc2)c1 (stereo not drawn) [NCGC00415566-01] | 9.44 |
| COc1ccccc1-c1n[nH]c2ncc(-c3cnn(C)c3)nc12 [NCGC00419074-01] | 17.2 |
| COc1cccc(NC(=O)N[C@H]2C[C@@H](c3nc(C)no3)N(C)C2)c1 [NCGC00395440-01] | 17.2 |
| COc1ccccc1Cc1nc2ccccc2nc1SCC(=O)NCc1ccccc1Cl [NCGC00133705-01] | 2.11 |
| O=C(CCC[C@H]1NC[C@@H]2C[C@H]1CN(Cc1ccccc1)C2)NCCCN1CCCc2ccccc21 [NCGC00428635-01] | 10.6 |
| Cc1ccc(O)c(CN2CCCC(c3nc(CC(C)C)no3)C2)c1 (stereo not drawn) [NCGC00443337-01] | 9.44 |
| Cc1cc(O)c(-c2ccnc3cc(-c4ccccc4)nn23)cc1Cl [NCGC00164840-01] | 1.88 |
| CCCCC(=O)Nc1nc(C)c(-c2csc(Nc3cc(OC)ccc3OC)n2)s1 [MLS000561609-01] | 9.44 |
| COc1cccc(CN2C(=O)OC3(CCN(Cc4c[nH]c5ccccc45)CC3)C2(C)c2cccnc2)c1 (stereo not drawn) [NCGC00415482-01] | 8.41 |
| O=c1cc(-c2ccccc2)c2ccc3c(c2o1)CN(Cc1cccc(Cl)c1)CO3 [NCGC00116370-01] | 0.841 |
| CCOC(=O)c1ccccc1NC(=O)C(C)Oc1ccccc1 (stereo not drawn) [MLS000109889-01] | 10.6 |
| Cc1nnc(NC(=O)C2c3ccccc3C(=O)N(CC(C)C)C23CCCCC3)s1 (stereo not drawn) [NCGC00423223-01] | 15 |
| CCC(C)(C)n1nnnc1C(c1cc2cccc(C)c2nc1O)N1CCN(C(=O)c2ccco2)CC1 (stereo not drawn) [MLS000073230-01] | 6.68 |
| Cc1cccc(-c2cc(C3CCN([S+](=O)([O-])c4cccc(C#N)c4)CC3)[nH]n2)c1 [NCGC00433033-01] | 15 |
| O=C(CC1C(=O)N(Cc2ccccc2)C(=S)N1CCN1CCOCC1)Nc1ccc(F)cc1 (stereo not drawn) [MLS000672078-01] | 5.31 |
